According to patent publication US20260022142A1, “MACROCYCLIC IMMUNOMODULATORS” (Bristol-Myers Squibb Company, priority 2022, published 2026):
Numbered stars: 1 amine (or outer) side, 2 acyl side, 3 side chain; on linkers, the order of the positions; unused ones are H or OH. Bridge positions count the residues as written; N and C are the ends. Square brackets hold non-standard residues; d marks the D form. Peptide text beside a SMILES is read from it. * marks the point of attachment. ξ: configuration not given here. Phe(4-COOH) = N[C@@H](Cc1ccc(C(=O)O)cc1)C(=O)O; d(γGlu) = O=C(O)[C@@H](CCC(=O)[*:2])N[*:1]; Bip = N[C@@H](Cc1ccc(-c2ccccc2)cc1)C(=O)O; Phe(3-Me) = Cc1cccc(C[C@H](N)C(=O)O)c1; hArg = N=C(N)NCCCC[C@H](N)C(=O)O; Cha = N[C@@H](CC1CCCCC1)C(=O)O; Cit = NC(=O)NCCC[C@H](N)C(=O)O; Thr(3ξ) = CC(O)[C@H](N)C(=O)O; dDab = NCC[C@@H](N)C(=O)O; hSer = N[C@@H](CCO)C(=O)O; Carboxymethyl = O=C(O)C*; Orn = NCCC[C@H](N)C(=O)O; Aun = NCCCCCCCCCCC(=O)O; Dab = NCC[C@H](N)C(=O)O; AEEA = NCCOCCOCC(=O)O

Biological target: T1, PD-1/PD-L1 interaction (PE-labeled human PD-L1-Ig binding to Jurkat cell line over-expressing human PD-1) (Homo sapiens, UniProt Q15116)
T1 construct: expressed in transfected cells; host or cells: Jurkat
T1 sequence (Q15116 25-288): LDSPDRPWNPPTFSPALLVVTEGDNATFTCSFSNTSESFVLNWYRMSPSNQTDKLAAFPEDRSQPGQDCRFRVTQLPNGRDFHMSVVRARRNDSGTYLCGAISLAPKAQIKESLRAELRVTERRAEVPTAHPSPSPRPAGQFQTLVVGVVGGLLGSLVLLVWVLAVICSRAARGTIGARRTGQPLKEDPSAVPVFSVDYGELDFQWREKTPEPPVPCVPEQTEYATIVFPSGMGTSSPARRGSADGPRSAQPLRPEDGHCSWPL
Assay: Jurkat-PD-1 Cell Binding High-Content Screening Assay (CBA)
Assay type: cell-based
Settings: Jurkat cell line over-expressing human PD-1; PE-labeled PD-L1-Ig 20 nM final; read-out: Jurkat hPD1-PDL1 IC50
Method in brief: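 First, compound is added to PD-1-expressing Jurkat cells in serum-containing DMEM and left 2 h at 37° C. Next, PE-conjugated PD-L1-Ig is introduced at 20 nM final concentration for 1 hour. Finally, cells are fixed in 4% paraformaldehyde with Hoechst 33342, washed and imaged.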

An IC50 of 10 nM was found for `CC(C)C[C@H]1NC(=O)[C@H](CCCN)NC(=O)[C@H](Cc2ccc(O)cc2)NC(=O)[C@H](Cc2ccc(-c3ccccc3)cc2)NC(=O)[C@H](C(C)C)NC(=O)[C@H](Cc2c[nH]c3ccccc23)NC(=O)[C@H](CC(=O)O)NC(=O)[C@H](Cc2ccc(OCC(=O)O)cc2)NC(=O)[C@H](CCCCNC(=N)N)NC(=O)CSC[C@@H](C(=O)N[C@@H](CCN)C(=O)NCCCCCCCCCCC(=O)O)NC(=O)[C@H](CCC(=O)O)NC(=O)[C@H](C(C)C)NC(=O)[C@H](CC2CCCCC2)NC(=O)[C@H](CCN)NC1=O` [Compound 3395] ({CH2CO}-[hArg]Y(Carboxymethyl)DWV[Bip]Y[Orn][dL][Dab][Cha]VEC[Dab][Aun]-OH; thioether N-14) in this work.
An IC50 of 9.1 nM was found for `Cc1cccc(C[C@@H]2NC(=O)[C@H](CC(=O)O)NC(=O)[C@H](Cc3ccc(OCC(=O)O)cc3)NC(=O)[C@H](CCCCNC(=N)N)NC(=O)CSC[C@@H](C(=O)NCCOCCOCC(=O)NCCCCCCCCCCC(=O)O)NC(=O)[C@H](CCC(N)=O)NC(=O)[C@H](C(C)C)NC(=O)[C@H](CC3CCCCC3)NC(=O)[C@H](CCN)NC(=O)[C@@H](CC(C)C)NC(=O)[C@H](CCN)NC(=O)[C@H](Cc3ccc(O)cc3)NC(=O)[C@H](Cc3ccc(-c4ccccc4)cc3)NC(=O)[C@H](C(C)C)NC2=O)c1` [Compound 3396] ({CH2CO}-[hArg]Y(Carboxymethyl)D[Phe(3-Me)]V[Bip]Y[Dab][dL][Dab][Cha]VQC[AEEA][Aun]-OH; thioether N-14) in this work.
An IC50 of 7.4 nM was found for `Cc1cccc(C[C@@H]2NC(=O)[C@H](CC(=O)O)NC(=O)[C@H](Cc3ccc(OCC(=O)O)cc3)NC(=O)[C@H](C(C)O)NC(=O)CSC[C@@H](C(=O)NCCOCCOCC(=O)NCCCCCCCCCCC(=O)O)NC(=O)[C@H](CCCNC(N)=O)NC(=O)[C@H](C(C)C)NC(=O)[C@H](CC3CCCCC3)NC(=O)[C@H](CCN)NC(=O)[C@@H](CC(C)C)NC(=O)[C@H](CCN)NC(=O)[C@H](Cc3ccc(O)cc3)NC(=O)[C@H](Cc3ccc(-c4ccccc4)cc3)NC(=O)[C@H](C(C)C)NC2=O)c1` (stereo partly drawn) [Compound 3397] ({CH2CO}-[Thr(3ξ)]Y(Carboxymethyl)D[Phe(3-Me)]V[Bip]Y[Dab][dL][Dab][Cha]V[Cit]C[AEEA][Aun]-OH; thioether N-14) in this work.
An IC50 of 5.8 nM was found for `Cc1cccc(C[C@@H]2NC(=O)[C@H](CC(=O)O)NC(=O)[C@H](Cc3ccc(OCC(=O)O)cc3)NC(=O)[C@H](CCCNC(=N)N)NC(=O)CSC[C@@H](C(=O)NCCOCCOCC(=O)NCCCCCCCCCCC(=O)O)NC(=O)[C@H](CCC(N)=O)NC(=O)[C@H](C(C)C)NC(=O)[C@H](CC3CCCCC3)NC(=O)[C@H](CCN)NC(=O)[C@@H](CC(C)C)NC(=O)[C@H](CCN)NC(=O)[C@H](Cc3ccc(O)cc3)NC(=O)[C@H](Cc3ccc(-c4ccccc4)cc3)NC(=O)[C@H](C(C)C)NC2=O)c1` [Compound 3398] ({CH2CO}-RY(Carboxymethyl)D[Phe(3-Me)]V[Bip]Y[Dab][dL][Dab][Cha]VQC[AEEA][Aun]-OH; thioether N-14) in this work.
An IC50 of 19.4 nM was found for `CC(C)C[C@H]1NC(=O)[C@H](CCCN)NC(=O)[C@H](CCCNC(N)=O)NC(=O)[C@H](Cc2ccc(-c3ccccc3)cc2)NC(=O)[C@H](C(C)C)NC(=O)[C@H](Cc2c[nH]c3ccccc23)NC(=O)[C@H](CC(=O)O)NC(=O)[C@H](Cc2ccc(OCC(=O)O)cc2)NC(=O)[C@H](CCCNC(=N)N)NC(=O)CSC[C@@H](C(=O)N[C@@H](CCC(=O)O)C(=O)NCCOCCOCC(=O)NCCCCCCCCCCC(=O)O)NC(=O)[C@H](C(C)O)NC(=O)[C@H](C(C)C)NC(=O)[C@H](CC2CCCCC2)NC(=O)[C@H](CCN)NC1=O` (stereo partly drawn) [Compound 3399] ({CH2CO}-RY(Carboxymethyl)DWV[Bip][Cit][Orn][dL][Dab][Cha]V[Thr(3ξ)]CE[AEEA][Aun]-OH; thioether N-14) in this work.
An IC50 of 8.7 nM was found for `Cc1cccc(C[C@@H]2NC(=O)[C@H](CC(=O)O)NC(=O)[C@H](Cc3ccc(OCC(=O)O)cc3)NC(=O)[C@H](CCCNC(=N)N)NC(=O)CSC[C@@H](C(=O)NCCOCCOCC(=O)N[C@H](CCC(=O)NCCCCCCCCCCC(=O)O)C(=O)O)NC(=O)[C@H](C(C)O)NC(=O)[C@H](C(C)C)NC(=O)[C@H](CC3CCCCC3)NC(=O)[C@H](CCN)NC(=O)[C@@H](CC(C)C)NC(=O)[C@H](CCCN)NC(=O)[C@H](CCCNC(N)=O)NC(=O)[C@H](Cc3ccc(-c4ccccc4)cc3)NC(=O)[C@H](C(C)C)NC2=O)c1` (stereo partly drawn) [Compound 3400] ({CH2CO}-RY(Carboxymethyl)D[Phe(3-Me)]V[Bip][Cit][Orn][dL][Dab][Cha]V[Thr(3ξ)]C[AEEA][d(γGlu)][Aun]-OH; thioether N-14) in this work.
An IC50 of 6.9 nM was found for `CC(=O)NCCCC[C@@H]1NC(=O)[C@H](C(C)C)NC(=O)[C@H](CC2CCCCC2)NC(=O)[C@H](CCN)NC(=O)[C@@H](CC(C)C)NC(=O)[C@H](CCCN)NC(=O)[C@H](Cc2ccc(O)cc2)NC(=O)[C@H](Cc2ccc(-c3ccccc3)cc2)NC(=O)[C@H](C(C)C)NC(=O)[C@H](Cc2c[nH]c3ccccc23)NC(=O)[C@H](CC(=O)O)NC(=O)[C@H](Cc2ccc(OCC(=O)O)cc2)NC(=O)[C@H](CCCNC(=N)N)NC(=O)CSC[C@@H](C(=O)NCCOCCOCC(=O)N[C@H](CCC(=O)NCCCCCCCCCCC(=O)O)C(=O)O)NC1=O` [Compound 3401] ({CH2CO}-RY(Carboxymethyl)DWV[Bip]Y[Orn][dL][Dab][Cha]VK(Ac)C[AEEA][d(γGlu)][Aun]-OH; thioether N-14) in this work.
An IC50 of 10.7 nM was found for `Cc1cccc(C[C@@H]2NC(=O)[C@H](CC(=O)O)NC(=O)[C@H](Cc3ccc(O)cc3)NC(=O)[C@H](CC(N)=O)NC(=O)CSC[C@@H](C(=O)NCCCCCCCCCCC(=O)O)NC(=O)[C@H](CCCNC(N)=O)NC(=O)[C@H](C(C)C)NC(=O)[C@H](CC3CCCCC3)NC(=O)[C@H](CCN)NC(=O)[C@@H](CC(C)C)NC(=O)[C@H](CCCN)NC(=O)[C@H](Cc3ccc(O)cc3)NC(=O)[C@H](Cc3ccc(-c4ccccc4)cc3)NC(=O)[C@H](C(C)C)NC2=O)c1` [Compound 3403] ({CH2CO}-NYD[Phe(3-Me)]V[Bip]Y[Orn][dL][Dab][Cha]V[Cit]C[Aun]-OH; thioether N-14) in this work.
An IC50 of 15 nM was found for `CC(=O)NCCCC[C@@H]1NC(=O)[C@H](C(C)C)NC(=O)[C@H](CC2CCCCC2)NC(=O)[C@H](CCN)NC(=O)[C@@H](CC(C)C)NC(=O)[C@H](CCCN)NC(=O)[C@H](Cc2ccc(O)cc2)NC(=O)[C@H](Cc2ccc(-c3ccccc3)cc2)NC(=O)[C@H](C(C)C)NC(=O)[C@H](Cc2c[nH]c3ccccc23)NC(=O)[C@H](CC(=O)O)NC(=O)[C@H](Cc2ccc(C(=O)O)cc2)NC(=O)[C@H](Cc2ccc(OCC(=O)O)cc2)NC(=O)CSC[C@@H](C(=O)N[C@H](CCN)C(=O)NCCCCCCCCCCC(=O)O)NC1=O` [Compound 3404] ({CH2CO}-Y(Carboxymethyl)[Phe(4-COOH)]DWV[Bip]Y[Orn][dL][Dab][Cha]VK(Ac)C[dDab][Aun]-OH; thioether N-14) in this work.
An IC50 of 8.2 nM was found for `CC(C)C[C@H]1NC(=O)[C@H](CCCN)NC(=O)[C@H](Cc2ccc(O)cc2)NC(=O)[C@H](Cc2ccc(-c3ccccc3)cc2)NC(=O)[C@H](C(C)C)NC(=O)[C@H](Cc2c[nH]c3ccccc23)NC(=O)[C@H](CC(=O)O)NC(=O)[C@H](Cc2ccc(OCC(=O)O)cc2)NC(=O)[C@H](CCCNC(=N)N)NC(=O)CSC[C@@H](C(=O)N[C@@H](CCN)C(=O)NCCCCCCCCCCC(=O)O)NC(=O)[C@H](CCC(N)=O)NC(=O)[C@H](C(C)C)NC(=O)[C@H](CC2CCCCC2)NC(=O)[C@H](CCN)NC1=O` [Compound 3405] ({CH2CO}-RY(Carboxymethyl)DWV[Bip]Y[Orn][dL][Dab][Cha]VQC[Dab][Aun]-OH; thioether N-14) in this work.
An IC50 of 21.2 nM was found for `CC(C)C[C@H]1NC(=O)[C@H](CCCN)NC(=O)[C@H](Cc2ccc(O)cc2)NC(=O)[C@H](Cc2ccc(-c3ccccc3)cc2)NC(=O)[C@H](C(C)C)NC(=O)[C@H](Cc2c[nH]c3ccccc23)NC(=O)[C@H](CC(=O)O)NC(=O)[C@H](Cc2ccc(OCC(=O)O)cc2)NC(=O)[C@H](CCCCNC(=N)N)NC(=O)CSC[C@@H](C(=O)N[C@@H](CCN)C(=O)NCCCCCCCCCCC(=O)O)NC(=O)[C@H](CCCNC(N)=O)NC(=O)[C@H](C(C)C)NC(=O)[C@H](CC2CCCCC2)NC(=O)[C@H](CCN)NC1=O` [Compound 3407] ({CH2CO}-[hArg]Y(Carboxymethyl)DWV[Bip]Y[Orn][dL][Dab][Cha]V[Cit]C[Dab][Aun]-OH; thioether N-14) in this work.
An IC50 of 20.9 nM was found for `CC(C)C[C@H]1NC(=O)[C@H](CCCN)NC(=O)[C@H](Cc2ccc(O)cc2)NC(=O)[C@H](Cc2ccc(-c3ccccc3)cc2)NC(=O)[C@H](C(C)C)NC(=O)[C@H](Cc2c[nH]c3ccccc23)NC(=O)[C@H](CC(=O)O)NC(=O)[C@H](Cc2ccc(OCC(=O)O)cc2)NC(=O)[C@H](CCCCNC(=N)N)NC(=O)CSC[C@@H](C(=O)N[C@@H](CCN)C(=O)NCCCCCCCCCCC(=O)O)NC(=O)[C@H](CCO)NC(=O)[C@H](C(C)C)NC(=O)[C@H](CC2CCCCC2)NC(=O)[C@H](CCN)NC1=O` [Compound 3408] ({CH2CO}-[hArg]Y(Carboxymethyl)DWV[Bip]Y[Orn][dL][Dab][Cha]V[hSer]C[Dab][Aun]-OH; thioether N-14) in this work.
An IC50 of 15.6 nM was found for `CC(=O)NCCCC[C@@H]1NC(=O)[C@H](C(C)C)NC(=O)[C@H](CC2CCCCC2)NC(=O)[C@H](CCN)NC(=O)[C@@H](CC(C)C)NC(=O)[C@H](CCCN)NC(=O)[C@H](Cc2ccc(O)cc2)NC(=O)[C@H](Cc2ccc(-c3ccccc3)cc2)NC(=O)[C@H](C(C)C)NC(=O)[C@H](Cc2c[nH]c3ccccc23)NC(=O)[C@H](CC(=O)O)NC(=O)[C@H](Cc2ccc(OCC(=O)O)cc2)NC(=O)[C@H](CCCCNC(=N)N)NC(=O)CSC[C@@H](C(=O)N[C@@H](CCN)C(=O)NCCCCCCCCCCC(=O)O)NC1=O` [Compound 3409] ({CH2CO}-[hArg]Y(Carboxymethyl)DWV[Bip]Y[Orn][dL][Dab][Cha]VK(Ac)C[Dab][Aun]-OH; thioether N-14) in this work.
